Measured values: ChEMBL document CHEMBL1130452, “L-373,890, An achiral, noncovalent, subnanomolar thrombin inhibitor” (Bioorg Med Chem Lett, 1997)

What was measured:
[1] = biological target: Serine protease 1 (Homo sapiens, UniProt P07477); experiment: Binding affinity against human trypsin
[2] = biological target: Vitamin K-dependent protein C (Homo sapiens, UniProt P04070); experiment: Binding affinity against serine protease Activated protein C
[3] = biological target: Plasma kallikrein (Homo sapiens, UniProt P03952); experiment: Binding affinity against serine protease plasma kallikrein; assay type: cell-free
[4] = biological target: Chymotrypsinogen A (Bos taurus, UniProt P00766); experiment: Binding affinity against serine protease […]; assay type: cell-free
[5] = biological target: Tissue-type plasminogen activator (Homo sapiens, UniProt P00750); experiment: Binding affinity against serine protease Tissue type plasminogen activator
[6] = biological target: Plasminogen (Rattus norvegicus, UniProt Q01177); experiment: Binding affinity against serine protease plasmin
[7] = biological target: T1, Prothrombin (Homo sapiens, UniProt P00734); experiment: Binding affinity against human thrombin
[8] = biological target: T1, Prothrombin; experiment: Binding affinity was evaluated against human thrombin

Serine protease 1, sequence (P07477 whole entry): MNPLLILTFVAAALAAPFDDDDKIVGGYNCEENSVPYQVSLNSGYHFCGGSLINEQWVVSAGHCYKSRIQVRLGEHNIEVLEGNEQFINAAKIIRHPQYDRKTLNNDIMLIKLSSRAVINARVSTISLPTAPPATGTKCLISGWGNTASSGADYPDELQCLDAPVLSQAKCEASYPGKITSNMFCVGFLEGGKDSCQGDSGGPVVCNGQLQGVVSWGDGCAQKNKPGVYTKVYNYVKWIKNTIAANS
Tissue-type plasminogen activator, sequence (P00750 whole entry): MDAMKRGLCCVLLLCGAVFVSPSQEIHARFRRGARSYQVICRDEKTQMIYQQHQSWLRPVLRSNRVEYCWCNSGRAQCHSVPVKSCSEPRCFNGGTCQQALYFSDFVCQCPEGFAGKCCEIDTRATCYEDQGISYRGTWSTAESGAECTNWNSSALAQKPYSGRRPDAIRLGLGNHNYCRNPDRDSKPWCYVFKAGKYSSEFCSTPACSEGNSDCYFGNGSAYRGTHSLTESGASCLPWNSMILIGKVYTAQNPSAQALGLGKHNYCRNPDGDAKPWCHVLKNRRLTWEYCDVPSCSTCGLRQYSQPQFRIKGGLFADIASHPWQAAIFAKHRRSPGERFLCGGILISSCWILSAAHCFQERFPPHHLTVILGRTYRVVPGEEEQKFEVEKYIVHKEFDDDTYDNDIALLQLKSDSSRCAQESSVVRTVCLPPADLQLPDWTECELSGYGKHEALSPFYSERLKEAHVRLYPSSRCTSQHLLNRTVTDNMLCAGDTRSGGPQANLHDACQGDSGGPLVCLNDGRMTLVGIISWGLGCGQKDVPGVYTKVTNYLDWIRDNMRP
Plasminogen, sequence (Q01177 97-581 limits assumed): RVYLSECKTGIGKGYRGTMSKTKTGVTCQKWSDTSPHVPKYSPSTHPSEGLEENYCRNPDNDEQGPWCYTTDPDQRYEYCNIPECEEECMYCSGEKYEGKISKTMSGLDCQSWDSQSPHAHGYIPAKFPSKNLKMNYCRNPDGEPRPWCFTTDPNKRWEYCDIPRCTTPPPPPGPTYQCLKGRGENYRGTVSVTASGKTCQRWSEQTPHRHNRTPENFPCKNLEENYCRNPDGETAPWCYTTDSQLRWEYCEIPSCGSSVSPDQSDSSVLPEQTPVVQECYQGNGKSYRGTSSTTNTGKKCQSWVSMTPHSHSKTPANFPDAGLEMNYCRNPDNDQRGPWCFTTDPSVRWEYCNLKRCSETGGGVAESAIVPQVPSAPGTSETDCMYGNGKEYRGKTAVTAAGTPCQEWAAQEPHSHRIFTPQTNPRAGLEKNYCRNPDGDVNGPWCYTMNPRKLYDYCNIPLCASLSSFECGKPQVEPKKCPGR
Plasminogen, sequence (Q01177 582-812 limits assumed): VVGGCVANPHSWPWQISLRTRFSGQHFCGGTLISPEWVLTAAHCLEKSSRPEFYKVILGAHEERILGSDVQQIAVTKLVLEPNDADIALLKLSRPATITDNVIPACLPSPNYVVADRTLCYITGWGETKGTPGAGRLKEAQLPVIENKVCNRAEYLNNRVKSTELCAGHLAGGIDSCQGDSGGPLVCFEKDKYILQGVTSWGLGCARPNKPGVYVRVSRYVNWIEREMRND
Vitamin K-dependent protein C, sequence (P04070 43-197 limits assumed): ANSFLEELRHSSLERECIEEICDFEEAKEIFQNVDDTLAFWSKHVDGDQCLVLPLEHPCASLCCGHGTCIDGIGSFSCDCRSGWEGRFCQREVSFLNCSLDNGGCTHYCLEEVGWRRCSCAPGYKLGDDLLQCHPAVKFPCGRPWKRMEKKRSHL
Vitamin K-dependent protein C, sequence (P04070 212-461 limits assumed): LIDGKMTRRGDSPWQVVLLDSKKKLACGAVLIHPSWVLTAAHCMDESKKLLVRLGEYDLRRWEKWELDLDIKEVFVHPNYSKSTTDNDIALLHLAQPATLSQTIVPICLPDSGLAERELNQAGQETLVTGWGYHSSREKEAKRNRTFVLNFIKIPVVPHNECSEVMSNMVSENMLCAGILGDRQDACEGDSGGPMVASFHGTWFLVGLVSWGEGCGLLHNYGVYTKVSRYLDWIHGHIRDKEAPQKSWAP
Plasma kallikrein, sequence (P03952 20-390 limits assumed): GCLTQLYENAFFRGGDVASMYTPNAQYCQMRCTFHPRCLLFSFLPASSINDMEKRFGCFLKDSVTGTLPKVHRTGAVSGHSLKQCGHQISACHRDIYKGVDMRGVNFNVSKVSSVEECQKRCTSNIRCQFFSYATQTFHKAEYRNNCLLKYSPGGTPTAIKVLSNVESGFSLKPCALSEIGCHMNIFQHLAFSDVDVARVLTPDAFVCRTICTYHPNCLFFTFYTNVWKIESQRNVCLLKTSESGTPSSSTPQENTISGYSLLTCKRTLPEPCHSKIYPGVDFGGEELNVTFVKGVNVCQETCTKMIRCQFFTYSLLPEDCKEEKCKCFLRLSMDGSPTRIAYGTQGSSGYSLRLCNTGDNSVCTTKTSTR
Plasma kallikrein, sequence (P03952 391-638 limits assumed): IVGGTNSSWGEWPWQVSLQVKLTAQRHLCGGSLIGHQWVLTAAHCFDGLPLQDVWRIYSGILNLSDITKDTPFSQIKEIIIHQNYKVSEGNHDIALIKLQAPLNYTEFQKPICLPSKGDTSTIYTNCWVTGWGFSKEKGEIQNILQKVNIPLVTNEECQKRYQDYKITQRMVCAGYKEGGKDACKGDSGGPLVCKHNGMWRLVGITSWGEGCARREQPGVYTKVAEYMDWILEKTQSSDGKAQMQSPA

SMILES | Ki [1] [µM] | Ki [7] [µM] | other results
Cc1ccc(NS(=O)(=O)Cc2ccccc2)c(=O)n1CC(=O)NC[C@H]1CC[C@H](N)CC1 | 3 | – | –
CN[C@H](Cc1ccccc1)C(=O)N1CCCC1C(=O)NC[C@H]1CC[C@H](N)CC1 (some centres not stated) | – | – | Ki [8]: 0.005 µM
Cc1ccc(S(=O)(=O)Nc2ccc(C)n(CC(=O)NC[C@H]3CC[C@H](N)CC3)c2=O)cc1 | 2.1 | 0.047 | –
Cc1ccc(NC(=O)c2ccccc2)c(=O)n1CC(=O)NCC1CCN(C(=N)N)CC1 | 1.5 | 0.69 | –
Cc1ccc(S(=O)(=O)Nc2ccc(C)n(CC(=O)NCC3CCN(C(=N)N)CC3)c2=O)cc1 | 0.14 | 0.029 | –
Cc1ccc(NC(=O)OCc2ccccc2)c(=O)n1CC(=O)NCC1CCN(C(=N)N)CC1 | 0.35 | 0.077 | –

Further molecules by falling Ki [1], results first:

Ki [1] [µM] | Ki [7] [µM] | SMILES | other results
2.2 | 0.047 | Cc1ccc(NCCc2ccccc2)c(=O)n1CC(=O)NC[C@H]1CC[C@H](N)CC1 | –
0.94 | 0.095 | Cc1ccc(NC(=O)CCc2ccccc2)c(=O)n1CC(=O)NCC1CCN(C(=N)N)CC1 | –
0.89 | 0.166 | Cc1ccc(NC(=O)CC(c2ccccc2)c2ccccc2)c(=O)n1CC(=O)NCC1CCN(C(=N)N)CC1 | –
0.57 | – | Cc1ccc(NS(=O)(=O)Cc2ccccc2)c(=O)n1CC(=O)NCC1CCN(C(=N)N)CC1 | Ki [2]: > 20 µM; Ki [3]: > 20 µM; Ki [4]: > 20 µM; Ki [5]: > 20 µM; Ki [6]: > 20 µM
